Source: US20220193301A1, “CELL SUSPENSION AND USE THEREOF” (AVITA Medical, Inc., priority 2012, published 2022)

System: Primary Epidermal Keratinocytes (PEK), Normal, Human, Adult
Experiment: In vitro Scratch Assay of keratinocytes (with and without mitomycin c)
Assay type: cell-based
Details: media/control group, no hydrogel
Text: 1. Maintain stock cultures of Primary Epidermal Keratinocytes (PEK), Normal, Human, Adult cells in Dermal Cell Basal Medium supplemented with Keratinocyte Growth Kit and Gentamicin-Amphotericin B Solution (Complete Medium). Subculture the stock cultures of cells to 2.5×10^4 cells/ml (estimate) and re-feed with complete medium every 2 days or when a density of near confluence is reached. 2. To each well of a 24 well plate add appropriate test substances. Row A, Columns 1-3: blank, no cells, medium only. Row B, Columns 1-3: baseline, cells only, no coating. Row C-D, Columns 1-3 and Rows A-D, Columns 4-6: test substances at determined previously, in a serial dilution series as necessary. 3. Harvest cells and wash the PEK cells in Media by centrifugation at 150×g for 3 to5 minutes. 4. Determine cell number and viability (by trypan blue exclusion), and suspend the cells to a final concentration of 5×10^4 cells/ml in Media. 5. Dispense 600 μl of the cell suspension (30,000 cells) into all wells of the plate prepared in Step 2. 6. […]
In vitro Scratch Assay was performed according to the above protocol. […] In vitro re-epithelialization was documented by photography, and the amount of migration was manually quantified by computer-assisted image analysis. The data was expressed as a percentage of the area of the scratch filled by keratinocytes (FIG. 7). […]

CO[C@@]12[C@H](COC(N)=O)C3=C(C(=O)C(C)=C(N)C3=O)N1C[C@@H]1N[C@@H]12 [MMC, mitomycin c]
healing of the scratch, MMC+ cells compared to MMC− cells: delayed healing
